Laboratory results taken from article PMC4321988, “Engineering of Helicobacter pylori L-Asparaginase: Characterization of Two Functionally Distinct Groups of Mutants” (PLoS ONE, 2015).
Where two headings read alike, the source gives them in different places.

How the values were obtained:
[1] = biological target: T1, HpASNase (Helicobacter pylori CCUG 17874 type II L-asparaginase) (Helicobacter pylori, UniProt O25424); assay: glutamate dehydrogenase-coupled NADH assay, […] nm; assay type: biochemical; details: 50 mM HEPES pH 7.5, 37°C
T1 construct: gene ansA; recombinant, E. coli BL21(DE3) pLysS, plasmid pDC1 (pET101 D-TOPO derivative), His-tag kept (given as N-terminal), 37 kDa band, tetramer

[2] = biological target: Helicobacter pylori CCUG 17874 type II L-asparaginase T16D mutant (Helicobacter pylori CCUG 17874); assay: SEC; analytical gel filtration of the purified mutant; data not shown; conditions not given
[3] = biological target: Helicobacter pylori CCUG 17874 type II L-asparaginase T95E mutant (Helicobacter pylori CCUG 17874); assay: as above

T1 sequence (O25424 whole entry): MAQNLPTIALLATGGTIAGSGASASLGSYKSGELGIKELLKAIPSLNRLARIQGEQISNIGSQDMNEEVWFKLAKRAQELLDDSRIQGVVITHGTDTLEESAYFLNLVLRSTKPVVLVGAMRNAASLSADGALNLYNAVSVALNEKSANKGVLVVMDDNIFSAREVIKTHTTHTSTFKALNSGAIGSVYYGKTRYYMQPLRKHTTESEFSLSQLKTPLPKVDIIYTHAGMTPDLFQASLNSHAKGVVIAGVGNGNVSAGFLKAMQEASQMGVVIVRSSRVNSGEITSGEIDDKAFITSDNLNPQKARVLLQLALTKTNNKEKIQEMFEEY

Q: `NC(=O)C[C@H](N)C(=O)O` [L-asparagine] was tested. Which Km ([1]; read-out: L-asparagine / S0.5, nH 1.0) did it give?
A: Its Km is 0.29 ± 0.03 mM.

Q: For `NC(=O)CC[C@H](N)C(=O)O` [L-glutamine], which Km ([1]; read-out: L-glutamine / S0.5, nH 2.0) is on record?
A: Its Km is 46.4 ± 4.02 mM.

Q: “Helicobacter pylori CCUG 17874 type II L-asparaginase T16D mutant (enzyme)” was tested. Which stoichiometry N [2] did it give?
A: The stoichiometry N was 4.

Q: “Helicobacter pylori CCUG 17874 type II L-asparaginase T95E mutant (enzyme)” was tested. Which stoichiometry N [3] did it give?
A: The stoichiometry N was 4.
